Results from patent US20160089377A1, “THERAPEUTIC TARGETING OF THE MTOR PATHWAY IN NEURODEVELOPMENTAL AND NEUROPSYCHIATRIC DISEASE” (THE TRUSTEES OF COLUMBIA UNIVERISTY IN THE CITY OF NEW YORK, priority 2013, published 2016).
“Also recorded” adds a separate entry of the source.

Tests used:
[1] = system: dendritic spines in the frontal association cortex; test: In vivo transcranial two-photon microscopy of dendritic spine formation and elimination; design: species or system mice
Source text: In order to assess whether we could reverse or prevent the abnormalities in spine dynamics in Caspr2 mutants, we treated Caspr2^+/−/Thy1-YFP/H, Caspr2^−/−/Thy-1-YFP/H mice, and WT littermates also positive for YFP/H from P12-P32 with either WYE125132 or with vehicle. One-month old (P30±1) male mice were used in the experiments. Spine formation and elimination were examined by imaging the mouse cortex through a thinned-skull window as described previously. Briefly, 1-mo old male mice expressing YFP were anaesthetized with ketamine and xylazine (intraperitoneal; 20 mg/ml and 3 mg/ml, respectively, in saline; 6 μl per gram of body weight). Thinned-skull windows were made in head-fixed mice with high-speed microdrills. Skull thickness was reduced to about 20 μm. A twophoton microscope tuned to 920 nm (×60 water immersion lens; numerical aperture,1.1) was used to acquire images. For re-imaging of the same region, thinned regions were identified on the basis of the maps of the brain vasculature. Microsurgical blades were used to re-thin the region of interest until a clear image could be obtained. The area of the imaging region was 200 μm×200 μm in the frontal association cortex. The centers of the imaging regions were as follows: +2.8 mm bregma, +1.0 mm midline.
(§1) WYE125132 (Chemscene) was administered by a daily p.o. gavaging in a volume of 10 ml/kg. For all behavioral experiments, dams were treated from PO to P12 after which individual pups were gavaged on a daily basis going forward. Mice also received drug treatment on the days of testing, at least 1 hour prior the experiment. For the two-photon and cell size quantitation studies, mice were gavaged from P12 to p35, after they were
One-month-old (P30±1) male mice were used in the experiments. Spine formation and elimination were examined by imaging the mouse frontal association cortex through a thinned-skull window as described previously (Lai, 2012).
To examine whether we could reverse the abnormalities in dendritic spine dynamics in the frontal association cortex, we gavaged the mice daily from P12 to P32 with WYE125132 versus vehicle.

[2] = system: layer V pyramidal neurons; test: Excitation-inhibition correlation, whole-cell recordings from slices of treated adult mice; format: in vivo
Description: All mice were treated with either WYE125132 or vehicle for a period of 2 weeks after which the animals were euthanized and thalamocortical slices were prepared. Briefly, animals were anesthetized, decapitated and the brain quickly placed into ice-cold dissection buffer containing (in mM): 75 sucrose, 87 NaCl, 2.5 KCl, 1.25 NaH2PO4, 0.5 CaCl2, 7 MgCl2 6H2O, 25 NaHCO3, 10 dextrose, bubbled with 95% O2/5% CO2 (pH 7.4). Slices (400 μm) were prepared with a vibratome (Leica, VT1200S), placed in 33-35° C. for artificial cerebrospinal fluid (ACSF, in mM: 124 NaCl, 2.5 KCl, 1.25 NaH2PO4, 2.5 CaCl2, 1.5 MgSO4 7H2O, 26 NaHCO3, and 10 dextrose) for <30 min; then returned to room temperature >1 hr before use. Slices were then transferred to the recording chamber and perfused (2.0-2.5 ml min-1) with oxygenated ACSF at 33-35° C. and given 30 min to stabilize. Somatic whole-cell recordings were made from layer 5 pyramidal cells in voltage and current clamp mode with a Multiclamp 700B amplifier (Molecular Devices). Selection was based on morphology and electrophysiological criteria. Patch pipettes (3-8MΩ) contained a current clamp solution. Data were filtered at 2 kHz, digitized at 10 kHz and analyzed with Clampfit. Cells were excluded from analysis if Ri or Rs changed by >25% over the course of the recording. Excitatory post-synaptic currents or potentials (EPSCs/Ps) were evoked by extracellular stimulation (0.01-1 ms, 1-10V) with a 4×1 array of electrodes placed in layer 4, and straddling the patched layer 5 neuron. Across mice we compared spontaneous and evoked inhibitory responses by clamping the membrane potential of the cell to sub-threshold levels. Furthermore, we compared inhibition generated by each stimulation electrode, to the corresponding amount of excitation when the cell was held at −80 mV. Lastly, we tested Spike-Timing Dependent Plasticity (STDP).
euthanized. For the electrophysiology and western blot rescue experiments, adult mice were gavaged for 14 consecutive days after which they were euthanized.
Whole cell recordings were made from layer V pyramidal cells of the temporal cortex. Focal extracellular stimulation was applied and excitatory and inhibitory currents were measured across various stimulation intensities to assess E:I balance. […]
recorded cell. […] We assessed this relation over multiple inputs onto the recorded postsynaptic neuron from different regions of the cortical brain slice, by systematically varying the intensity of extracellular stimulation, such that higher intensities evoke responses from larger subpopulations of presynaptic inputs (House et al., 2011). […]

Cntnap2 mutant mice = test: Novel Object Recognition (NOR) test; format: in vivo; conditions: WYE125132-treated Cntnap2-/- mice, P<0.05
Description: Cntnap2 mutant and WT mice were obtained from heterozygous crossings and were born with the expected Mendelian frequencies. The three obtained genotypes were housed together. Mice were treated with p.o. gavaging once per day with either WYE125132 (10 mg/kg) or vehicle. All procedures involving animals were performed in accordance with the Columbia University/New York State Psychiatric Institute animal research committee.
as §1
Mice were marked with ear tagging. Experimenters were blinded to the genotype during testing. Behavioral tests were performed in the New York State Psychiatric Institute behavioral test core facility.
We examined whether we could reverse cognitive deficits in Cntnap2 mutant mice. We subjected Cntnap2 mutant mice to the Novel Object Recognition (NOR) test, a behavioral task that requires precise cognitive control. […]

CNC(=O)Nc1ccc(-c2nc(N3CC4CCC(C3)O4)c3cnn(C4CCC5(CC4)OCCO5)c3n2)cc1 [WYE125132]
spine formation (in words) ([1]; Caspr2+/-/Thy1-YFP/H mice, P12-P32, P<0.0058): increase in spine formation | spine elimination (in words) ([1]; Caspr2+/-/Thy1-YFP/H mice, P12-P32, versus vehicle, P<0.006): dramatic prevention of spine elimination | spine elimination (in words) ([1]; Caspr2-/-/Thy-1-YFP/H mice, P12-P32, versus vehicle, P<0.04): statistically significant prevention | rate of spine elimination ([1]; Cntnap2+/- mice gavaged daily P12 to P32 with WYE125132): 8.5%±2.0% | rate of spine elimination ([1]; Cntnap2-/- mice gavaged daily P12 to P32 with WYE125132): 9.5%±1.6% | spine elimination (in words) ([1]; both Cntnap2+/- and Cntnap2-/- mutant mice, P12 to P32): reduced back to levels seen in the WT littermates; also recorded: rescues excessive spine elimination | correlation between excitation and inhibition (in words) ([2]; Caspr2-/- / Cntnap2 mutant mice treated with WYE125132 for 2 weeks): high correlation between excitation and inhibition | correlation between excitation and inhibition (in words) ([2]; WT littermates treated with WYE125132 for 2 weeks): high correlation between excitation and inhibition | linear correlation coefficient r between excitation and inhibition (representative recording) ([2]; WYE125132-treated Cntnap2-/- mouse, single representative recording): 0.72 | linear correlation coefficient r between excitation and inhibition (summary) ([2]; WYE125132-treated Cntnap2-/- mutant mice, 14 days gavage, n=12, error s.e.m.): 0.43±0.08 | deficit in the Novel Object Recognition test (Cntnap2 mutant mice): rescue of this phenotype; also recorded: rescue of a deficit
